Source: PubChem BioAssay AID1053201 (The Scripps Research Institute Molecular Screening Center, 2014)
Active and inactive are the calls of the source. The rule behind the calls is not given here.

System: methionyl-tRNA synthetase (Trypanosoma brucei brucei)
Assay: inhibition of trypanosome methionyl-tRNA synthetase aminoacylation – biochemical, radioactivity, assay provider, round 3, late-stage follow-up (AID 1053201)
Conditions: recombinant T. brucei MetRS enzyme, [3H]methionine tRNA aminoacylation filter assay, 2 h, stronger effect = higher value

| inhibition (at 10 µM) | inhibition (inhibition, at 1 µM) | SMILES |
| --- | --- | --- |
| -18.4% (inactive) | -21.5% | CCN(CC)C(=O)C(=O)c1cn(CCNc2cccc(C(F)(F)F)c2)c2ccccc12 |
| 98.2% | 94.7% | CCN(CC)C(=O)C(=O)c1cn(CC(=O)Nc2cc(Oc3ccccc3OC)cc(C(F)(F)F)c2)c2ccccc12 |
| 95.6% | 91.9% | CCN(CC)C(=O)C(=O)c1cn(CC(=O)Nc2cc(Oc3ccccc3F)cc(C(F)(F)F)c2)c2ccccc12 |
| 97.3% | 93.1% | CCN(CC)C(=O)C(=O)c1cn(CC(=O)Nc2cc(Oc3ccc(F)cc3)cc(C(F)(F)F)c2)c2ccccc12 |
| 23.3% (inactive) | -10.2% | O=C(Cc1ccc(Nc2nc3ccc(Br)cc3[nH]2)cc1)NCCc1cccs1 |
| 47.9% (inactive) | 9.14% | O=C(Cn1cc(C(=O)C(=O)NCc2ccccc2)c2ccccc21)Nc1cc(Oc2ccccc2)cc(C(F)(F)F)c1 |
| -16.7% (inactive) | -13.1% | CCN(CC)C(=O)Cc1cn(CC(=O)Nc2cccc(C(F)(F)F)c2)c2ccccc12 |
| 94.1% | 92.3% | CCN(CC)C(=O)C(=O)c1cn(CC(=O)Nc2cc(Oc3ccc(OC)cc3)cc(C(F)(F)F)c2)c2ccccc12 |
| 43.1% (inactive) | -5.91% | Nc1c(Cl)ncnc1Nc1ccc(C(=O)O)cc1 |
| 8.12% (inactive) | -20.2% | CCN(CC)C(=O)C(=O)c1cn(CCNc2cc(Oc3ccccc3)cc(C(F)(F)F)c2)c2ccccc12 |
